Measurements published in patent US8486683B2, “Beta-glucosidase enzymes” (Iogen Energy Corporation, priority 2009, dated 2013).
Where “and” joins values, the source holds several entries; their conditions need not be identical. Equal entries are not always repeated.

Tests used:
[1] = biological target: T1, Trichoderma reesei beta-glucosidase TrCel3A (Cel3A, BGL1), wild type (parental), SEQ ID NO: 116 / SEQ ID NO: 1 (Trichoderma reesei, UniProt Q12715); assay: Initial rate assay of cellobiose hydrolysis, parental TrCel3A (Example 9); assay type: biochemical
T1 sequence (Q12715 32-744): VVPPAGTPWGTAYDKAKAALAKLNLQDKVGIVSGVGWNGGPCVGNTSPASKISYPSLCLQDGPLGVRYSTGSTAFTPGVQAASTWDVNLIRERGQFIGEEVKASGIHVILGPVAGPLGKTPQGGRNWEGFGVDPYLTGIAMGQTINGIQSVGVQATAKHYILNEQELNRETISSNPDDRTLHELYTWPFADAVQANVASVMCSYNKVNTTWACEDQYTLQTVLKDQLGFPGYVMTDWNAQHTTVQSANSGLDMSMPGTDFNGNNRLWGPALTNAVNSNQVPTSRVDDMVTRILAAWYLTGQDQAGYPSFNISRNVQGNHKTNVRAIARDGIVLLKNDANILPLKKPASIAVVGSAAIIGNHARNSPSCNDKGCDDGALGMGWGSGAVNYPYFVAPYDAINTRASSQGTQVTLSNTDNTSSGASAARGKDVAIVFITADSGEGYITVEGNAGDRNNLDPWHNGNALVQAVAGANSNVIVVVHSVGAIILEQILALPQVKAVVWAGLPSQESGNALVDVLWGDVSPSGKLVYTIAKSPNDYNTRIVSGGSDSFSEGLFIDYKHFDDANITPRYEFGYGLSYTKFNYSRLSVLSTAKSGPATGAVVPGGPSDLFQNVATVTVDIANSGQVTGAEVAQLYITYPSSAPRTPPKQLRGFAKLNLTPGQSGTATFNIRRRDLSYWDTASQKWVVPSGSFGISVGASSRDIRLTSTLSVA
Text: (§1) KG is defined as the concentration of glucose which reduces the enzymatic activity of the beta-glucosidase by 50%. […] The kcat is the catalytic rate constant for the hydrolysis of cellobiose. Example 8 details an assay for measuring the KG and KG2 of parental and modified TrCel3A beta-glucosidases. Example 9 details an assay for measuring the kcat of parental and modified TrCel3A beta-glucosidases.
(§2) KG of the parental and modified TrCel3A beta-glucosidases can be determined by measuring the rate of hydrolysis of a chromogenic substrate, such as p-nitrophenyl-beta-D-glucopyranoside (pNPG), in the presence of various concentrations of glucose as described in Example 8. […] The KG2 constants for parental and modified TrCel3A beta-glucosidases can be determined by measuring the rate of hydrolysis of cellobiose in reactions containing increasing concentrations of cellobiose or, alternatively, by measuring the rate of hydrolysis of a chromogenic substrate, such as pNPG, in the presence of various concentrations of a cellobiose as described in Example 8. […] The kcat values for parental and modified TrCel3A beta-glucosidases can be determined by measuring the rate of cellobiose hydrolysis at varying concentrations of a cellobiose substrate, for example, as described in Example 9. […]

[2] = test system: Trichoderma reesei beta-glucosidase TrCel3A variant TrCel3A-I543N, SEQ ID NO: 10 (full: SEQ ID NO: 125); assay: Initial rate assay of cellobiose hydrolysis, TrCel3A-I543N (Example 9); assay type: biochemical; conditions: relative to parental TrCel3A
Text: as §1, §2

[3] = biological target: T1, Trichoderma reesei beta-glucosidase TrCel3A (Cel3A, BGL1), wild type (parental), SEQ ID NO: 116 / SEQ ID NO: 1; assay: pNPG competitive substrate/inhibitor real-time kinetic assay, parental TrCel3A (Example 8)
[4] = biological target: Beta-glucosidases from most fungi; conditions: literature, read-out: KG values for glucose (glucose inhibition); cited from earlier work
[5] = biological target: Several microbial beta-glucosidases with higher tolerance to glucose inhibition; conditions: literature, read-out: KG (tolerance to glucose inhibition); cited from earlier work
[6] = substrate: OC[C@H]1O[C@@H](O[C@H]2[C@H](O)[C@@H](O)C(O)O[C@@H]2CO)[C@H](O)[C@@H](O)[C@@H]1O; assay: purified protein, by the assay type; conditions: other: 0.4 mM pNPG, 3 mM cellobiose, 50 mM citrate pH 5.0, 50° C.

OC[C@H]1O[C@@H](O[C@H]2[C@H](O)[C@@H](O)C(O)O[C@@H]2CO)[C@H](O)[C@@H](O)[C@@H]1O (stereo partly drawn) [cellobiose, gluco-beta-(1,4)-glucoside]
kcat (catalytic rate constant for cellobiose) ([1]; 0.3 to 40 mM cellobiose, 50° C., 15 min): 8.92 µmol/min/mg and 8.92 ± 0.29 µmol/min/mg
Relative kcat ([1]; cellobiose, relative to parental TrCel3A): 1
Relative kcat [2]: 0.73
Relative KG2 ([3]; relative to parental TrCel3A): 1.00

OC[C@H]1OC(O)[C@H](O)[C@@H](O)[C@@H]1O (some centres unmarked) [glucose]
Ki [4]: 600 to 8000 µM
Ki [5]: > 8000 µM
Ki [3]: 580 µM

B1: Trichoderma reesei beta-glucosidase TrCel3A (Cel3A, BGL1), wild type (parental), SEQ ID NO: 116 / SEQ ID NO: 1 (Trichoderma reesei) (protein)
chain: VVPPAGTPWGTAYDKAKAALAKLNLQDKVGIVSGVGWNGGPCVGNTSPASKISYPSLCLQDGPLGVRYSTGSTAFTPGVQAASTWDVNLIRERGQFIGEEVKASGIHVILGPVAGPLGKTPQGGRNWEGFGVDPYLTGIAMGQTINGIQSVGVQATAKHYILNEQELNRETISSNPDDRTLHELYTWPFADAVQANVASVMCSYNKVNTTWACEDQYTLQTVLKDQLGFPGYVMTDWNAQHTTVQSANSGLDMSMPGTDFNGNNRLWGPALTNAVNSNQVPTSRVDDMVTRILAAWYLTGQDQAGYPSFNISRNVQGNHKTNVRAIARDGIVLLKNDANILPLKKPASIAVVGSAAIIGNHARNSPSCNDKGCDDGALGMGWGSGAVNYPYFVAPYDAINTRASSQGTQVTLSNTDNTSSGASAARGKDVAIVFITADSGEGYITVEGNAGDRNNLDPWHNGNALVQAVAGANSNVIVVVHSVGAIILEQILALPQVKAVVWAGLPSQESGNALVDVLWGDVSPSGKLVYTIAKSPNDYNTRIVSGGSDSFSEGLFIDYKHFDDANITPRYEFGYGLSYTKFNYSRLSVLSTAKSGPATGAVVPGGPSDLFQNVATVTVDIANSGQVTGAEVAQLYITYPSSAPRTPPKQLRGFAKLNLTPGQSGTATFNIRRRDLSYWDTASQKWVVPSGSFGISVGASSRDIRLTSTLSVA
Km [6]: 1180 ± 120 µM
